Test results: ChEMBL document CHEMBL3407389, “1,3,4-Thiadiazoles: a potent multi targeted pharmacological scaffold” (Eur J Med Chem, 2015)
In brackets after ≈: the same amount, converted by molar mass. Blank lines part the entries; values can stand above or below the molecule they belong to.

Columns and labels:
[1] = system: Helicobacter pylori; assay: Antimicrobial activity against Helicobacter pylori at 1 ug/disc; type: functional; details: read-out: IZ
[2] = system: Helicobacter pylori; assay: Antimicrobial activity against Helicobacter pylori by disc diffusion method; type: functional
[3] = system: Human immunodeficiency virus 2; assay: Antiviral activity against HIV2 infected in human MT4 cells; type: functional, organism-based; details: Human immunodeficiency virus 2, MT4
[4] = system: Human immunodeficiency virus 1; assay: Antiviral activity against HIV1 infected in human MT4 cells; type: functional, organism-based; details: Human immunodeficiency virus 1, MT4
[5] = system: Human immunodeficiency virus 2; assay: Antiviral activity against HIV2 ROD by MTT assay; type: functional, organism-based; details: Human immunodeficiency virus 2, ISOLATE ROD
[6] = system: Human immunodeficiency virus 1; assay: Antiviral activity against HIV1 3B by MTT assay; type: functional, organism-based; details: Human immunodeficiency virus 1, 3B
[7] = system: Helicobacter pylori; assay: Potency index, ratio of IZ for compound to IZ for metronidazole against Helicobacter pylori by disc diffusion method; type: functional
[8] = organism: Mus musculus; assay: Anticonvulsant activity in mouse by MES test; type: functional
[9] = biological target: Carbonic anhydrase (Bos taurus, UniProt P00921+Q95323+P18915+Q3SZX4); assay: Inhibition of bovine carbonic anhydrase 5; type: protein assay
[10] = biological target: Carbonic anhydrase 2 (Homo sapiens, UniProt P00918); assay: Inhibition of human carbonic anhydrase 2
[11] = biological target: Carbonic anhydrase 1 (Homo sapiens, UniProt P00915); assay: Inhibition of human carbonic anhydrase 1
[12] = biological target: Carbonic anhydrase 9 (Homo sapiens, UniProt Q16790); assay: Inhibition of human carbonic anhydrase 9
[13] = biological target: Cyclooxygenase (Homo sapiens, UniProt P35354+P23219); assay: Inhibition of CO (unknown origin)
[14] = biological target: T1, Polyunsaturated fatty acid 5-lipoxygenase (Homo sapiens, UniProt P09917); assay: Inhibition of 5-LO (unknown origin)
T1 sequence (P09917 whole entry): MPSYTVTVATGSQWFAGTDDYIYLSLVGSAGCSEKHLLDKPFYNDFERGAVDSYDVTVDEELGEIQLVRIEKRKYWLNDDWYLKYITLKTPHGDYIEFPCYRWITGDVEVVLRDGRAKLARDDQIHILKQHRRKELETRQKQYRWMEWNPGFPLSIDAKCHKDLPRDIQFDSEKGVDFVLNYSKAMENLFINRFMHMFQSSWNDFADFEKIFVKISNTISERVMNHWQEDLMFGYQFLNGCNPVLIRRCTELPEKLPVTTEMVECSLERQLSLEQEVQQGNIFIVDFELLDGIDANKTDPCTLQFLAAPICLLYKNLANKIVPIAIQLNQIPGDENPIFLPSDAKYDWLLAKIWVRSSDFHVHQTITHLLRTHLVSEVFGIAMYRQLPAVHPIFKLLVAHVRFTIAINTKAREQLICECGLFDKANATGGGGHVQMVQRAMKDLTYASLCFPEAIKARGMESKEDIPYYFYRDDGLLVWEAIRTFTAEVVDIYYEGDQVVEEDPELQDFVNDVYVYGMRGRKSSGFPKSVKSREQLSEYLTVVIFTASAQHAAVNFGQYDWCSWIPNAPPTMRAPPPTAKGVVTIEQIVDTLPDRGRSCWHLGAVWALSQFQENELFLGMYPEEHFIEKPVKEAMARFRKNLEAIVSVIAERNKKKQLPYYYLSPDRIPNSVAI

[15] = organism: Mus musculus; assay: Anticonvulsant activity in mouse assessed as protection against shock-induced seizures by MES test; type: functional

Chain of Carbonic anhydrase 1 (P00915 whole entry): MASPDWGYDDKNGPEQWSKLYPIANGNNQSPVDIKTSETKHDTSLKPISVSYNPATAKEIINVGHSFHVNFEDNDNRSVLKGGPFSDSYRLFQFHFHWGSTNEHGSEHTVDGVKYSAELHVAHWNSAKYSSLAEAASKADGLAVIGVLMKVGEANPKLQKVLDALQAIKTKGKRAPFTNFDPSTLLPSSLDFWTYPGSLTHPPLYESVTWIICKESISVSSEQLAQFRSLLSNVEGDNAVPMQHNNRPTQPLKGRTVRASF

Structure (SMILES): Cn1c([N+](=O)[O-])cnc1-c1nnc(S)s1
zone of inhibition at 1 µg/disc [1]: 7.7 mm

Structure (SMILES): Cc1ncc([N+](=O)[O-])n1CCO [METRONIDAZOLE]
inhibition zone (IZ) [2]: 6 mm | zone of inhibition at 1 µg/disc [1]: 16.3 mm

EC50 [3]: 1.97 mg/L (≈ 9.11 µM) | EC50 [4]: 1.97 mg/L (≈ 9.11 µM)
Structure (SMILES): c1ccc(C2=Nn3cnnc3SC2)cc1

Structure (SMILES): O=C(COc1ccc2ccccc2c1)NCc1nnc(Nc2ccccc2)s1
EC50 [5]: 0.961 mg/L (≈ 2.46 µM) | EC50 [6]: 0.961 mg/L (≈ 2.46 µM)

Structure (SMILES): CC1CN(c2nnc(-c3ncc([N+](=O)[O-])n3C)s2)CC(C)N1 (centres undefined)
inhibition zone (IZ) [2]: 30.9 mm | fold change (FC) [7]: 5

Structure (SMILES): CNc1nnc(-c2ccccc2-c2ccccc2)s1
ED50 [8]: 18 mg/kg

Ki [9]: 2 nM | Ki [10]: 0.2 nM | Ki [11]: 3 nM | Ki [12]: 6 nM
Structure (SMILES): NS(=O)(=O)c1nnc(NS(=O)(=O)c2ccc(-[n+]3ccccc3)cc2)s1

EC50 [3]: 9.9 mg/L (≈ 25.1 µM) | EC50 [4]: 23.9 mg/L (≈ 60.5 µM)
Structure (SMILES): Cc1ccc(S(=O)(=O)NCc2nnc(Nc3ccc(Cl)cc3)s2)cc1

IC50 [13]: 800 nM | IC50 [14]: 2800 nM
Structure (SMILES): CC(C)(C)c1cc(-c2n[nH]c(=S)s2)cc(C(C)(C)C)c1O.C[N+](C)(C)CCO

Structure (SMILES): Clc1ccc(Nc2nnc(-c3ccncc3)s2)cc1
Activity [15]: 100%
